How the values were obtained:
[1] = system: APP cleavage by M2 in HeLa cells; assay: APP cleavage in HeLa cells co-transfected with APP and M2, pulse-chase and immunoprecipitation; type: cell-based, human; conditions: Bafilomycin A1 in the media
[2] = target: T1, M2pd (Homo sapiens, UniProt P56817); assay: Hydrolysis of synthetic peptide substrates by M2pd, kinetics by HPLC; type: biochemical
T1 construct: Pro-memapsin 2 residues start at residue Ala-16; The two recombinant pro-memapsin 2s have different C-terminal lengths; Clone T1 ends at Thr-456; made in house
Description: A synthetic peptide derived from this site (SEVKM/DAEFR) (SEQ ID NO:4) was hydrolyzed by M2pd at the beta-secretase site (marked by /). A second peptide (SEVNL/DAEFR) (SEQ ID NO:5) derived from the APP beta-secretase site and containing the ‘Swedish mutation’ (Mullan, M. et al., Nature Genet. 2:340-342 (1992)), known to elevate the level of alpha-beta production in cells (Citron, M. et al., Nature […] (1992)), was hydrolyzed by M2pd with much higher catalytic efficiency. Both substrates were optimally cleaved at pH 4.0. A peptide derived from the processing site of presenilin 1 (SVNM/AEGD) (SEQ ID NO:6) was also cleaved by M2pd with less efficient kinetic parameters. […]
Incubation in 0.1 M sodium acetate, pH 4.0, for 16 h at 22° C. auto-catalytically converted pro-M2pd to M2pd. […] For kinetic studies, the identified HPLC (Beckman System Gold) product peaks were integrated for quantitation. The Km and kcat values for presenilin 1 and Swedish APP peptides (Table 1) were measured by steady-state kinetics. The individual Km and kcat values for APP peptide could not be measured accurately by standard methods, so its kcat/Km value was measured by competitive hydrolysis of mixed substrates against presenilin 1 peptide (Fersht, A. “Enzyme Structure and Mechanism”, 2nd Ed., W.H. Freeman and Company, New York. (1985)).

T1 sequence (P56817 14-454): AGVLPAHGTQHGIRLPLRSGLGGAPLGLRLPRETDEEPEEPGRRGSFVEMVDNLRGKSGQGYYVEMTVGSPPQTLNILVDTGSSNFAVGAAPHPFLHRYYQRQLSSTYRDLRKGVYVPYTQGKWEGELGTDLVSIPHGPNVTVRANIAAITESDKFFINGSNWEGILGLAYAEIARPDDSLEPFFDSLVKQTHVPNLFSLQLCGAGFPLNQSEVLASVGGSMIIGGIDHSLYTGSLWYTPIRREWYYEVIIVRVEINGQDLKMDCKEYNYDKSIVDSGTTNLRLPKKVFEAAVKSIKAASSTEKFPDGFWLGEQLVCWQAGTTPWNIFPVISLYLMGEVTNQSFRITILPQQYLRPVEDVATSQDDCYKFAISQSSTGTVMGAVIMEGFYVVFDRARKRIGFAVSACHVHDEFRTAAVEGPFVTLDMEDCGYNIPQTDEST

| cleavage by M2pd [2] | Molecule | production of APP fragments beta N- and beta C- [1] |
| --- | --- | --- |
|  | CO/C1=C\C(C)=C\[C@@H](C)[C@@H](O)[C@@H](C)C/C(C)=C/C=C/[C@H](OC)[C@@H]([C@@H](C)[C@@H](O)[C@H](C)[C@@]2(O)C[C@@H](O)[C@H](C)[C@@H](C(C)C)O2)OC1=O [Bafilomycin A1] | abolished the production of both APP fragments |
| not cleaved | KGGVVIATVIVK |  |

Source: US7829669B2, “Catalytically active recombinant memapsin and methods of use thereof” (Oklahoma Medical Research Foundation, priority 1999, dated 2010)
